Key:
[1] = Antiangiogenic activity against human HREC cells assessed as inhibition of cell growth incubated for 44 hrs by Alamar Blue fluorescence assay; format: functional
HUVEC = assay: Antiangiogenic activity against HUVEC cells assessed as inhibition of cell growth incubated for 44 hrs by Alamar Blue fluorescence assay; format: functional; conditions: Homo sapiens

Row | SMILES | GI50 [1] | GI50 (HUVEC)
1 | COc1cc(O)c(OC)c2c1C[C@@H](Cc1ccc(O)cc1)CO2 | > 100 µM | > 100 µM
2 | COc1cc2c(c(O)c1OC)CC(Cc1ccc(O)cc1)CO2 (stereo unspecified) | 3.47 µM | 90.1 µM
3 | COc1cc2c(c(OC)c1O)CC(Cc1ccc(O)cc1)CO2 (stereo unspecified) | 0.96 µM | > 100 µM
4 | COc1cc(OC)c2c(c1O)OCC(Cc1ccc(O)cc1)C2 (stereo unspecified) | 28.3 µM | > 100 µM
5 | COc1cc(O)c2c(c1OC)OCC(Cc1ccc(O)cc1)C2 (stereo unspecified) | > 100 µM | > 100 µM
6 | COc1c(O)cc2c(c1OC)C[C@H](Cc1ccc(O)cc1)CO2 | > 100 µM | > 100 µM
7 | COc1c(O)cc2c(c1OC)CC(Cc1ccc(O)cc1)CO2 (stereo unspecified) | > 100 µM | > 100 µM
8 | COc1c(O)cc2c(c1OC)C[C@@H](Cc1ccc(O)cc1)CO2 | > 100 µM | > 100 µM
